Measurements as given in patent US7122359B2, “Active-site engineering of nucleotidylyltransferases and general enzymatic methods for the synthesis of natural and “unnatural” UDP- and TDP-nucleotide sugars” (priority 2000, dated 2006).

Assays:
[1] = molecular target: T1, Salmonella enterica LT2 α-D-glucopyranosyl phosphate thymidylyltransferase (Ep) (Salmonella typhimurium, UniProt P26393); type: biochemical; details: secondary plot of Lineweaver-Burke plots, assays in triplicate
T1 construct: made in house; host or cells: E. coli (E. coli-prfbA-C)
Description: FIG. 10. […] The conditions for the Ep assay conditions and HPLC resolution of reactants and products were similar to those described in Jiang, J., Biggins, J. B. & Thorson, J. S. A General Enzymatic Method for the Synthesis of Natural and “Unnatural” UDP- and TDP-Nucleotide Sugars. J. Am. Chem. Soc. 122, 6803–6804 (2000).
(§1) Assays for product formation and steady state kinetics were accomplished using conditions similar to those described. in Jiang, J., Biggins, J. B. & Thorson, J. S. A General Enzymatic Method for the Synthesis of Natural and “Unnatural” UDP- and TDP-Nucleotide Sugars. J. Am. Chem. Soc. 122, 6803-6804 (2000). For the mutant pool assays, an aliquot which contained an eqimolar ratio of each mutant (60 μg) was utilized.

[2] = molecular target: T1, Salmonella enterica LT2 α-D-glucopyranosyl phosphate thymidylyltransferase (Ep); experiment: Ep-catalyzed conversion of α-D-hexopyranosyl phosphates and NTP to NDP-sugars, HPLC (FIG. 2); type: biochemical; details: 5 mM NTP, 10 mM sugar phosphate, 30 min, 37° C.
Description: FIG. 2. E^p-Catalyzed Conversion of Substrates wherein superscript indicators (a)–(h) are as follows: (a) Percent conversion=[Ap/(AP+AT)]×100, where AP is the NDP-sugar product peak integration and AT represents the NTP peak integration. HRMS for all observed products reported in the supporting information. (b) Standard retention times: TDP, […]; TTP, 7.2 mm; UDP, 4.0 mm; UTP, 6.1 mm. (c) Commercially available. (d) Coelutes with commercially available standard. […] (f) Adjusted for the 2:1 α/β-28. (g) In contrast to previously published studies (See Lindquist, L; Kaiser, R.; Reeves, P. R.; Lindberg, A. A., Eur J. Biochem, 1993, 211, 763–770). (h) No products observed.
To evaluate the synthetic utility of purified thymidylyltransferase, Ep, α-D-hexopyranosyl phosphate, Mg^+2 and NTP were incubated at about 37° C. for about 30 min and the extent of product formation determined by HPLC. The results of these assays are illustrated in FIG. 2. Confirmation of product formation was based upon HPLC co-elution with commercially available standards and/or HPLC isolation and high resolution mass spectroscopy of the product. […] A reaction containing 5 mM NTP, 10 mM sugar phosphate and 5.5 mM MgCl2 in a total volume of 50 μL 50 mM potassium phosphate buffer, pH 7.5 at 37° C. was initiated by the addition of 3.52 U Ep (1 U=the amount of protein needed to produce 1 μmol TDP-D-glucose min^−1). The reaction was incubated with slow agitation for 30 min at 37° C., quenched with MeOH (50 μL), centrifuged (5 min, 14,000×g) and the supernatant was stored at −20° C. until analysis by HPLC. Samples (20 μL) were resolved on a Sphereclone 5 u SAX column (250×4.6 mm) fitted with a guard column (30×4.6 mm) using a linear gradient (20–60 mM potassium phosphate buffer, pH 5.0, 1.5 mL min^−1, A275 nm).

[3] = molecular target: T1, Salmonella enterica LT2 α-D-glucopyranosyl phosphate thymidylyltransferase (Ep); experiment: Ep-catalyzed conversion of aminodeoxy/acetamidodeoxy sugar phosphates with inorganic pyrophosphatase, HPLC (FIG. 4); type: biochemical; details: for product formation with dTTP: 2.5 mM NTP, 5.0 mM sugar phosphate, 10 U inorganic pyrophosphatase, 30 min, 37° C.
Protocol: To evaluate the synthetic utility of thymidylyl-transferase, purified Ep, α-D-glucopyranosyl phosphate, Mg^+2, NTP and inorganic pyrophosphatase were incubated at 37° C. for 30 min and the extent of product formation determined by HPLC. The inorganic pyrophosphatase was included to drive the reaction forward. A reaction containing 2.5 mM NTP, 5.0 mM sugar phosphate, 5.5 mM MgCl2 and 10 U inorganic pyrophosphatase in a total volume of 50 μL 50 mM potassium phosphate buffer, pH 7.5 at 37° C. was initiated by the addition of 3.52 U Ep (1 U=the amount of protein needed to produce […] TDP-D-glucose min^−1). The reaction was incubated with slow agitation for 30 min at 37° C., quenched with MeOH (50 μL), centrifuged (5 min, 14,000×g) and the supernatant was stored at −20° C. until analysis by HPLC. Samples (30 μL) were resolved on a Sphereclone 5u SAX column (150×4.6 mm) fitted with a SecurityGuard ™ cartridge (Phenomenex; Torrance, Calif.) using a linear gradient (50–200 mM potassium phosphate buffer, pH 5.0, 1.5 mL min^−1, A275 nm).
The results of these assays are illustrated in FIG. 4. For each assay, confirmation of product formation was based upon high resolution mass spectroscopy of HPLC-isolated products and, also in some cases, HPLC co-elution with commercially available standards.
A reaction containing 2.5 mM NTP, 5.0 mM sugar phosphate, 5.5 mM MgCl2 and 10 U inorganic pyrophosphatase in a total volume of 50 μL 50 mM potassium phosphate buffer, pH 7.5 at 37° C. was initiated by the addition of 3.52 U Ep (1 U=the amount of protein needed to produce 1 μmol TDP-α-D-glucose min^−1) The reaction was incubated with slow agitation for 30 min at 37° C., quenched with MeOH (50 μL), centrifuged (5 min, 14,000×g) and the supernatant was stored at −20° C. until analysis by HPLC. Samples (30 μL) were resolved on a Sphereclone 5u SAX column (250×4.6 mm) fitted with a guard column (30×4.6 mm) using a linear gradient (50–200 mM potassium phosphate buffer, pH 5.0, 1.5 mL min^−1, A275 nm).

wild-type Ep = molecular target: T2, wild-type Ep (Salmonella typhimurium, UniProt P26393); experiment: Conversion of sugar phosphates by wild-type enzyme (FIG. 11); type: biochemical, Salmonella enterica LT2
T2 construct: made in house; host or cells: E. coli (E. coli-prfbA-C)
Protocol: (§2) FIG. 11. Percent conversion of sugar phosphates according to the present invention by wild-type and mutant enzymes. The alterations from native substrate (Glc-1-P,1) are highlighted in red. For the mutant pool, mutants Asp41Asn, Glu62Asp, Thr201A and Trp224His were pooled, concentrated and an aliquote constituting 60 μg of each mutant (corresponding to 3.5U Ep) was utilized for the assay.
Percent conversion was determined as described in Jiang, J., Biggins, J. B. & Thorson, J. S. A General Enzymatic Method for the Synthesis of Natural and “Unnatural” UDP- and TDP-Nucleotide Sugars. J. Am. Chem. Soc. 122, 6803–6804 (2000).
as §1

Ep Thr102Ala mutant = molecular target: T3, Ep Thr102Ala mutant (Salmonella typhimurium, UniProt P26393, T201A); experiment: Individual mutant analysis: Thr102Ala; type: biochemical, Salmonella enterica LT2; details: over wild-type Ep
T3 construct: made in house
Description: (§3) Thr102Ala, on the other hand, was responsible for the 2-fold increase in the conversion of (108). […] Yet, cumulatively, this small set of directed mutants was able to successfully turn over three of four targeted “unnatural” substrates. […] This Ep variant will serve as an excellent foundation for second generation double mutants.
as §1

[4] = Specific activity of purified Ep (1 U = protein needed to produce 1 μmol TDP-D-glucose min^−1); type: biochemical, Salmonella enterica LT2; details: purified to near homogeneity
Description: Ep is encoded by rmlA, which was previously known as rfbA (Reeves et al. Trends Microbiol. 1996, 4, 495–502). The rmlA-encoded Ep was overexpressed in E. coli to provide the desired Ep as >5% of the total soluble protein. The corresponding Ep was purified to near homogeniety with a specific activity of 110 U mg^−1, a 2-fold improvement over the previously reported values. (See Lindquist, L.; Kaiser, R.; Reeves, P. R.; Lindberg, A. A. Eur. J. Biochem., 1993, 211, 763–770.) An (NH4)2SO4 precipitate of E. coli-prfbA-C crude extracts was dialyzed against buffer B (20 mM Tris.HCl, 1 mM EDTA, pH 7.5) The dialysate was resolved by anion exchange (DE52, 3×15 cm, 50 mL buffer B wash followed by a linear gradient of 0–500 mM NaCl, 1.0 mL min^−1) and the Ep fractions combined, concentrated and further resolved by FPLC gel filtration (S-200, 2×70 cm, 50 mM Tris.HCl, 200 mM NaCl, pH 7.5). The purified Ep was stored in aliquots (−80° C.) until used.
To evaluate the synthetic utility of purified thymidylyltransferase, Ep, α-D-hexopyranosyl phosphate, Mg^+2 and NTP were incubated at about 37° C. for about 30 min and the extent of product formation determined by HPLC. The results of these assays are illustrated in FIG. 2. Confirmation of product formation was based upon HPLC co-elution with commercially available standards and/or HPLC isolation and high resolution mass spectroscopy of the product. […]

Ep Trp224His mutant = molecular target: T4, Ep Trp224His mutant (Salmonella typhimurium, UniProt P26393, W224H); experiment: Individual mutant analysis: Trp224His; type: biochemical, Salmonella enterica LT2; details: deconvolution of the mutant pool
T4 construct: made in house
Description: as §3, §1

[5] = system: mutant pool (Asp41Asn, Glu62Asp, Thr201A and Trp224His Ep mutants); experiment: Conversion of sugar phosphates by pooled Ep mutants (FIG. 11); type: biochemical, Salmonella enterica LT2; details: 60 μg of each mutant
Protocol: as §2
As a rapid means to assay the entire pool of the four newly constructed mutants, the mutants were combined and the mixture directly tested for ability to convert compounds (2), (108), (89), (102), (38), and (127). […] Those substrates turned over include […] and (127), the two sugar phosphates not accepted or poorly accepted by wild-type Ep.
as §1

Molecule: O=P(O)(O)O[C@H]1O[C@H](CO)[C@@H](O)[C@H](O)[C@H]1O [compound 2, α-D-glucopyranosyl phosphate]
- Km [1]: 300 ± 100 µM
- Vmax [1]: 0.03 ± 0.02 mM/min
- activity as Ep substrate with TTP [2]: prefers

Molecule: CC(=O)N[C@H]1[C@@H](OP(=O)(O)O)O[C@H](CO)[C@@H](O)[C@@H]1O [compound 108, 2-acetamido-2-deoxy-α-D-glucopyranosyl phosphate, reference compound]
- product formation with dTTP [3]: well-tolerated
- acceptance / conversion by wild-type Ep (wild-type Ep): poor conversion
- increase in conversion by Thr102Ala mutant (Ep Thr102Ala mutant): 2 fold

Molecule: Ep: Salmonella enterica LT2 rmlA-encoded α-D-glucopyranosyl phosphate thymidylyltransferase, overexpressed in E. coli and purified
- specific activity [4]: 110 U mg^−1

Molecule: CC(=O)NC[C@H]1O[C@H](OP(=O)([O-])[O-])[C@H](O)[C@@H](O)[C@@H]1O.[Na+].[Na+] [compound 86, Disodium-(6-acetamido-6-deoxy-α-D-glucopyranosyl) Phosphate]
- conversion by Trp224His mutant (Ep Trp224His mutant): responsible for converting
- turnover by the mutant pool [5]: turned over
- product formation with dTTP [3]: less activity
- increase of product formation with UTP in comparison to dTTP ([3]; FIG. 4): 8 fold
- acceptance / conversion by wild-type Ep (wild-type Ep): not well-accepted
